Results as given in patent US20240336608A1, “IL4I1 INHIBITORS AND METHODS OF USE” (Merck Sharp & Dohme LLC, priority 2023, published 2024).
pEC50: −log10 of the molar value.

Biological target: T1, recombinant IL4I1 (Homo sapiens, UniProt Q96RQ9)
T1 construct: purchased R&D Systems 5684-AO-020
T1 sequence (Q96RQ9 22-567): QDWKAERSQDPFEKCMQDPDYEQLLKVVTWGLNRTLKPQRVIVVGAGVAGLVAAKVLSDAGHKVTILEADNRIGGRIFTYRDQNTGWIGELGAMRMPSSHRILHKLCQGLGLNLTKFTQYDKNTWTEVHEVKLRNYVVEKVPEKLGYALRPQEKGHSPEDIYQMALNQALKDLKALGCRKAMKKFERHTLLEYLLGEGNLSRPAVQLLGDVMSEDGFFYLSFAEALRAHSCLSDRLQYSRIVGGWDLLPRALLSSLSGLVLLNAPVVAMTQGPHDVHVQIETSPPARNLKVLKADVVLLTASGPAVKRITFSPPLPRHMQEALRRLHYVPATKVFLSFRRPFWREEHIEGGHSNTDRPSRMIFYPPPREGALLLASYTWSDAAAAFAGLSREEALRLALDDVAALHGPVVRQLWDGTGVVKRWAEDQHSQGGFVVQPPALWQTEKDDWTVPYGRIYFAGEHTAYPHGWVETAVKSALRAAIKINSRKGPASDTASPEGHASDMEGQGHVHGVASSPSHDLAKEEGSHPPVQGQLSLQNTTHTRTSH
Test: IL4I1 Enzymatic Assay (Amplex Red/HRP coupled detection of H2O2, fluorescence)
Type: biochemical
Conditions: 1 nM recombinant IL4I1; four-hour pre-incubation with compound; 1 mM each Phe, Tyr, Trp; ten-point titration
How it was run: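 H2O2 output was coupled to resorufin fluorescence (ex 544/em 590) via 0.05 mM Amplex Red and 1 U/mL HRP. Substrate: Phe, Tyr, Trp at 1 mM each; enzyme 1 nM, 4 h compound pre-incubation, 120 min reaction, pH 7.0 Hepes. EC50 by nonlinear four-parameter regression, 1:3 ten-point titration.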

| Structure (SMILES) | pEC50 |
| --- | --- |
| O=C(NCc1nnc(-c2ccccc2)s1)c1cn(Cc2ccccn2)nn1 [Example 101, N-((5-phenyl-1,3,4-thiadiazol-2-yl)methyl)-1-(pyridin-2-ylmethyl)-1H-1,2,3-triazole-4-carboxamide] | 7.72 |
| Cc1nc(C#N)ccc1-n1cc(C(=O)NCc2nnc(-c3ccccc3)s2)nn1 [Example 335, 1-(6-cyano-2-methylpyridin-3-yl)-N-((5-phenyl-1,3,4-thiadiazol-2-yl)methyl)-1H-1,2,3-triazole-4-carboxamide] | 8.00 |
| Cc1ccc(-n2cc(C(=O)NCc3cc(-c4ccccc4)on3)nn2)c(C)n1 [Example 237, 1-(2,6-dimethylpyridin-3-yl)-N-((5-phenylisoxazol-3-yl)methyl)-1H-1,2,3-triazole-4-carboxamide] | 8.15 |
| Cc1ccc(-n2cc(C(=O)NCc3nnc(-c4cccc(F)c4C)s3)nn2)c(C)n1 [Example 110, 1-(2,6-dimethylpyridin-3-yl)-N-((5-(3-fluoro-2-methylphenyl)-1,3,4-thiadiazol-2-yl)methyl)-1H-1,2,3-triazole-4-carboxamide] | 6.51 |
| O=C(NCc1nnc(-c2ccccc2)s1)c1cn(-c2cnccn2)nn1 [Example 311, N-((5-phenyl-1,3,4-thiadiazol-2-yl)methyl)-1-(pyrazin-2-yl)-1H-1,2,3-triazole-4-carboxamide] | 6.53 |
| O=C(NCc1nnc(-c2ccccc2)s1)c1cc(C(F)(F)F)n[nH]1 [Example 28, N-[(5-phenyl-1,3,4-thiadiazol-2-yl)methyl]-3-(trifluoromethyl)-1H-pyrazole-5-carboxamide] | 6.15 |
| O=C(NCc1nnc(-c2ccccc2)s1)c1cn([C@@H]2CCC[C@H]2O)nn1 [Example 210, 1-((1R,2R)-2-hydroxycyclopentyl)-N-((5-phenyl-1,3,4-thiadiazol-2-yl)methyl)-1H-1,2,3-triazole-4-carboxamide] | 6.96 |
| CCC(CO)(CO)n1cc(C(=O)NCc2nnc(-c3ccccc3)s2)nn1 [Example 195, 1-(1-hydroxy-2-(hydroxymethyl)butan-2-yl)-N-((5-phenyl-1,3,4-thiadiazol-2-yl)methyl)-1H-1,2,3-triazole-4-carboxamide] | 6.27 |
| O=C(NCc1nnc(-c2ccccc2)s1)c1cn(C2CC(F)(F)C2)nn1 [Example 61, 1-(3,3-difluorocyclobutyl)-N-((5-phenyl-1,3,4-thiadiazol-2-yl)methyl)-1H-1,2,3-triazole-4-carboxamide] | 7.17 |
| Cc1ccc(-n2cc(C(=O)NCc3cc(-c4ccncc4)on3)nn2)c(C)n1 [Example 266, 1-(2,6-dimethylpyridin-3-yl)-N-((5-(pyridin-4-yl)isoxazol-3-yl)methyl)-1H-1,2,3-triazole-4-carboxamide] | 7.59 |
| O=C(NCc1nnc(-c2ccccc2)s1)c1cn(C[C@@H](F)CO)nn1 [Example 165, (R)-1-(2-fluoro-3-hydroxypropyl)-N-((5-phenyl-1,3,4-thiadiazol-2-yl)methyl)-1H-1,2,3-triazole-4-carboxamide] | 8.15 |
| C[C@@H]1C[C@H]1n1cc(C(=O)NCc2nnc(-c3ccccc3)s2)nn1 [Example 134, 1-((1R,2R)-2-methylcyclopropyl)-N-((5-phenyl-1,3,4-thiadiazol-2-yl)methyl)-1H-1,2,3-triazole-4-carboxamide] | 6.78 |
| CC(C#N)n1cc(C(=O)NCc2cc(-c3ccncc3)on2)nn1 (single isomer, unassigned) [Example 276, 1-(1-cyanoethyl)-N-((5-(pyridin-4-yl)isoxazol-3-yl)methyl)-1H-1,2,3-triazole-4-carboxamide] | 6.95 |
| O=C(NCc1nnc(-c2ccccc2)s1)c1cn(C2CC2(F)F)nn1 (single isomer, unassigned) [Example 131, 1-(2,2-difluorocyclopropyl)-N-((5-phenyl-1,3,4-thiadiazol-2-yl)methyl)-1H-1,2,3-triazole-4-carboxamide] | 7.27 |
| NC(=O)Cn1cc(C(=O)NCc2nnc(-c3ccccc3)s2)nn1 [Example 70, 1-(2-amino-2-oxoethyl)-N-((5-phenyl-1,3,4-thiadiazol-2-yl)methyl)-1H-1,2,3-triazole-4-carboxamide] | 8.30 |
| CC(NC(=O)c1cn(CC(F)F)nn1)c1ccc(-c2ccccc2)nn1 (single isomer, unassigned) [Example 348, 1-(2,2-difluoroethyl)-N-(1-(6-phenylpyridazin-3-yl)ethyl)-1H-1,2,3-triazole-4-carboxamide] | 6.06 |
| Cn1cc(C(=O)NCc2nnc(N3CCCCC3)s2)nn1 [Example 294, 1-methyl-N-((5-(piperidin-1-yl)-1,3,4-thiadiazol-2-yl)methyl)-1H-1,2,3-triazole-4-carboxamide] | 6.60 |
| Cc1ccc(-n2cc(C(=O)NCc3nnc(-c4ccccc4)s3)nn2)c(=O)[nH]1 [Example 339, 1-(6-methyl-2-oxo-1,2-dihydropyridin-3-yl)-N-((5-phenyl-1,3,4-thiadiazol-2-yl)methyl)-1H-1,2,3-triazole-4-carboxamide] | 6.76 |
| Cc1csc(C(=O)NCc2nnc(-c3ccccc3)s2)c1Cl [Example 37, 3-chloro-4-methyl-N-[(5-phenyl-1,3,4-thiadiazol-2-yl)methyl]thiophene-2-carboxamide] | 7.92 |
| Cn1cc(C(=O)NCc2nnc(-c3ccc(F)cc3)s2)nn1 [Example 219, N-{[5-(4-fluorophenyl)-1,3,4-thiadiazol-2-yl]methyl}-1-methyl-1H-1,2,3-triazole-4-carboxamide] | 6.81 |
| CCc1[nH]nc(C(=O)NCc2nnc(-c3ccccc3)s2)c1C [Example 47, 5-ethyl-4-methyl-N-((5-phenyl-1,3,4-thiadiazol-2-yl)methyl)-1H-pyrazole-3-carboxamide] | 6.81 |
| Cn1cc(C(=O)NCc2cc(-c3cccc(F)c3)no2)nn1 [Example 226, N-{[3-(3-fluorophenyl)-1,2-oxazol-5-yl]methyl}-1-methyl-1H-1,2,3-triazole-4-carboxamide] | 6.46 |
| Cc1ccc(-n2cc(C(=O)NCc3ccc(-n4ccnn4)nn3)nn2)c(C)n1 (single isomer, unassigned) [Example 345, N-((6-(1H-1,2,3-triazol-1-yl)pyridazin-3-yl)methyl)-1-(2,6-dimethylpyridin-3-yl)-1H-1,2,3-triazole-4-carboxamide] | 6.76 |
| CC([C@H]1CCCO1)n1cc(C(=O)NCc2nnc(-c3ccccc3)s2)nn1 (stereo partly drawn) [Example 204, N-((5-phenyl-1,3,4-thiadiazol-2-yl)methyl)-1-(1-((R)-tetrahydrofuran-2-yl)ethyl)-1H-1,2,3-triazole-4-carboxamide] | 7.13 |
